# A melting point compilation (Tetko et al.; mined from patent text by program, amines drawn as free bases though some values may be those of a salt)
row,melting point [°C],Structure (SMILES)
1,137 to 138,O=C(NCCO)c1cccc(-c2cccc3nn(Cc4ccc(F)cc4)cc23)c1
2,257 to 258,Cc1ccc(C(=O)Nc2ccc(C(=O)CCC(=O)O)cc2)cc1
3,188 to 190,COc1ccc(C(=O)Nc2ccccc2)cc1NCc1ccoc1
4,121 to 123,CCOc1c(C)c(C)c2c(c1C)CCC(C)(COc1ccc(N)cc1)O2 (stereo not drawn)
5,198 to 200,CCCOc1ccc(S(=O)(=O)N2CCN(Cc3ccccc3)CC2)cc1-c1nc2cc(N)c([N+](=O)[O-])cc2c(=O)[nH]1
6,172 to 174,CCCC(CCC)c1ccc(COc2ccc(-c3csc(COc4cncc(C(=O)O)c4)n3)cc2)cc1
7,55 to 60,CCCNC(=O)C(C)=Cc1ccc2[nH]cc(Cc3ccc(C(=O)OC)cc3OC)c2c1
8,203 to 205,CC(C)(C)c1cc(CCc2ccccc2NC(=O)NC(C)(C)c2ccc(Cl)c(Cl)c2)cc(C(C)(C)C)c1O
9,191 to 192,Cc1oc(-c2ccccc2)nc1CCOc1ccc(CC2SC(=O)NC2=O)cn1 (stereo not drawn)
10,258 to 260,CC1=C(C)C(=O)C(CN2C(=O)[C@H]3CCC[C@H]3N(C(=O)CN3C(=O)c4ccccc4C3=O)c3ccccc32)=C(C)C1=O (relative stereo)
11,136 to 138,O=S(=O)(c1ccc(F)cc1)c1ccc(SC2SCC(O)C(O)C2O)cc1 (stereo not drawn)
12,181 to 182,COC(=O)/C=C(\c1ccccc1)c1ccc2c(c1)C(C)(C)OC(=O)N2
13,143 to 145,Cc1ccc(S(=O)(=O)c2ccc3c(c2)c(CCN(C)C(=O)OC(C)(C)C)cn3C)cc1
14,71 to 72,Cc1cc(OCC(=O)c2ccc(C(C)C)cc2)c(C)c(C)c1Br
15,170 to 171,Cc1cc(C(=O)NS(=O)(=O)c2ccccc2Cl)nc(Cl)n1
16,149 to 150,CC(C)(C)c1cc(C(C)(C)C)c(O)c(C(=O)Nc2ccc(S(=O)(=O)C(F)(F)F)cc2Cl)c1O

# Further lines, the compound ahead of its results:
row,Structure (SMILES),melting point [°C]
1,COc1ccc(OC)c(C=C2CCn3c2nc2ccc(Cl)cc2c3=O)c1,220 to 222
2,Cc1c(O)cc2c(c1C)CCC2c1c[nH]cn1 (stereo not drawn),198 to 202
3,CN(C)C1(c2ccccc2)CCC(CCCNC(=O)NCCc2c[nH]c3ccccc23)CC1 (stereo not drawn),57
4,CCCCCCCCCCCCCCOc1cc(OC)cc(N)c1OCOC,66 to 67
5,CC(Oc1ccc2nc(NC(=O)NCCN3CCOCC3)sc2c1)c1c(Cl)cccc1Cl (stereo not drawn),165 to 168
6,C=CCOc1ccccc1OCC(O)CNC1CCc2ccccc2C1 (stereo not drawn),98 to 100
7,N=C(N)Nc1nc2ccc(OCc3ccccc3)cc2[nH]1,224 to 227
8,O=C(O)C1=C(C(=O)O)Oc2ccccc2O1,215 to 218
9,O=[N+]([O-])c1ccc(-n2ccnn2)c(F)c1,123 to 124
10,CCCCCCCCCCNC(=O)C=Cc1cccc(N2CC(C(=O)OCCN(CC)CC)CC2=O)c1 (stereo not drawn),78 to 80
11,CCN(CC)C(=O)c1cc(OC)cc(Oc2cccc(C(F)(F)F)c2)n1,78 to 89
12,O=[N+]([O-])c1cc(-c2nc(-c3ccco3)no2)ccc1Cl,136 to 138
13,C1CCc2c(c3c(N4CCCC4)nc(N4CCCC4)nc3n2CCN2CCOCC2)C1,132 to 133
14,C#CCn1c(=O)oc2cc(Cl)c(-c3ccc(C(F)(F)F)n(C)c3=O)cc21,187 to 189
15,O=C(O)CON=C(c1ccccc1)c1cc2ccncc2[nH]1,68 to 73
16,O=C(Nc1c(C(O)(C(F)(F)F)C(F)(F)F)ccc2ccccc12)c1ccc(Cl)cc1,175 to 176
17,CCOCc1nc2c(N)nc(C)c(C)c2n1NC1CCC1,139 to 141
18,O=C1C=CC(=C(c2ccccc2)c2ccccc2)O1,110 to 112
19,COC(C=CC=Cc1ccc(OC)cc1)=CC(=O)O,187
20,CCCCOC(=O)c1ccc(N2CCN(C)CC2)cc1,118 to 120
21,COc1cccc(OC/C=C(\C)C=O)c1,45 to 48
22,COc1cc(OC)cc(C(=CC#N)c2ccc(OC)c(F)c2)c1,91 to 93
